Reference: paper PMC9105976, “A Novel β-Hairpin Peptide Z-d14CFR Enhances Multidrug-Resistant Bacterial Clearance in a Murine Model of Mastitis” (International Journal of Molecular Sciences, 2022)
Values after ≈ are worked out from the molar mass of the structure shown. Like-named read-outs stand apart in the source and are kept apart here. Positions of bridges follow the written chain, without caps; N, C: chain ends. Residues, ends and D or L forms follow the SMILES beside them.

Key:
MRSA ATCC33591 = test: MIC/MBC, microdilution broth method; assay type: cell-based, S. aureus; conditions: for MBC: MRSA ATCC33591, kills 99.9% bacteria, NA = no activity at 1 mg/mL
Experimental: (§1) The MIC of peptides against bacteria was carried out by the microdilution broth method. The bacterial culture (OD 600 = 0.6) was diluted in 10 mM PBS to 1 × 10^6 CFU/mL. The bacterial suspension (100 μL) was added to 96-well plates, and the same volume of peptides, ampicillin or gentamicin (concentrations ranging from 0.001 to 2 mg/mL) were then added to the same 96-well plates, respectively.

[1] = system: Streptococcus suis CVCC3307; test: MIC/MBC, microdilution broth method; assay type: cell-based; conditions: for MBC: kills 99.9% bacteria, NA = no activity at 1 mg/mL
Experimental: as §1

[2] = system: Bacillus cereus CAU 202020; test: MIC/MBC, microdilution broth method; assay type: cell-based; conditions: for MIC: Bacillus cereus, CAU202020, 18 h, read-out: MIC; for MBC: CAU202020, Bacillus cereus CAU 202020 (MDR isolate), kills 99.9% bacteria, NA = no activity at 1 mg/mL, read-out: MBC
Experimental: as §1

[3] = system: Salmonella typhimurium ATCC14028; test: MIC/MBC, microdilution broth method; assay type: cell-based; conditions: Salmonella enterica; for MIC: 18 h, read-out: MIC; for MBC: Salmonella typhimurium ATCC14028, kills 99.9% bacteria, NA = no activity at 1 mg/mL, read-out: MBC
Experimental: as §1

[4] = system: Proteus vulgaris CVCC1971; test: MIC/MBC, microdilution broth method; assay type: cell-based; conditions: for MBC: kills 99.9% bacteria, NA = no activity at 1 mg/mL
Experimental: as §1

[5] = system: Klebsiella pneumoniae CAU202084; test: MIC/MBC, microdilution broth method; assay type: cell-based; conditions: for MBC: kills 99.9% bacteria, NA = no activity at 1 mg/mL
Experimental: as §1

[6] = system: Escherichia coli ATCC25922; test: MIC/MBC, microdilution broth method; assay type: cell-based; conditions: for MBC: Escherichia coli ATCC25922, minimum concentration which kills 99.9% bacteria, NA = no activity at 1 mg/mL, read-out: MBC; for MIC: Escherichia coli, ATCC25922, 18 h, read-out: MIC
Experimental: as §1

[7] = system: Escherichia coli CVCC1450; test: MIC/MBC, microdilution broth method; assay type: cell-based; conditions: for MBC: Escherichia coli CVCC1450, minimum concentration which kills 99.9% bacteria, NA = no activity at 1 mg/mL, read-out: MBC; for MIC: Escherichia coli, CVCC1450, 18 h, read-out: MIC
Experimental: as §1

[8] = system: Escherichia coli CAU 201919; test: MIC/MBC, microdilution broth method; assay type: cell-based; conditions: for MBC: CAU201919, Escherichia coli CAU 201919 (MDR isolate), kills 99.9% bacteria, NA = no activity at 1 mg/mL, read-out: MBC; for MIC: Escherichia coli, CAU201919, 18 h, read-out: MIC
Experimental: as §1

[9] = system: Staphylococcus haemolyticus CAU202078; test: MIC/MBC, microdilution broth method; assay type: cell-based; conditions: for MBC: Staphylococcus haemolyticus CAU202078 (MDR isolate), kills 99.9% bacteria, NA = no activity at 1 mg/mL, read-out: MBC; for MIC: Staphylococcus haemolyticus, CAU202078, 18 h, read-out: MIC
Experimental: as §1

[10] = system: Staphylococcus aureus ATCC29213; test: MIC/MBC, microdilution broth method; assay type: cell-based; conditions: for MBC: Staphylococcus aureus ATCC29213, kills 99.9% bacteria, NA = no activity at 1 mg/mL, read-out: MBC; for MIC: Staphylococcus aureus, ATCC29213, 18 h, read-out: MIC
Experimental: as §1

[11] = system: Escherichia coli CAU 201920; test: MIC/MBC, microdilution broth method; assay type: cell-based; conditions: for MBC: CAU201920, Escherichia coli CAU 201920 (MDR isolate), kills 99.9% bacteria, NA = no activity at 1 mg/mL, read-out: MBC; for MIC: Escherichia coli, CAU201920, 18 h, read-out: MIC
Experimental: as §1

S. aureus ATCC29213 = test: Time-killing assay; assay type: cell-based; conditions: 2 MIC, CFU counts at 0-24 h; for time to kill bacteria in the logarithmic phase: 1 × 10^6 CFU/mL
Experimental: (§2) E. coli ATCC25922 and S. aureus ATCC29213 in the mid-logarithmic phase were diluted into 1 × 10^6 CFU/mL with 10 mM PBS, and incubated with 10 μL Z-d14CFR in a final concentration of 2 MIC. At 0, 4, 8, 12, 16, 20, and 24 h, the mixture was serial diluted and spread onto LB agar plates. After 16 h of cultivation, the CFU number of bacteria was counted to evaluate the ability of peptide to kill bacteria. The bacteria treated with 10 mM PBS as a negative control, and meanwhile incubated with 2 MIC gentamicin or polymyxin B as a positive control.

E. coli ATCC25922 = test: Time-killing assay; assay type: cell-based; conditions: 2 MIC, CFU counts at 0-24 h; for time to kill bacteria in the logarithmic phase: 1 × 10^6 CFU/mL
Experimental: as §2

E. coli CAU201919 = test: Murine model of mastitis induced by MDR E. coli; assay type: in vivo, mice; conditions: Z-d14CFR 25 μg or gentamicin 10 μg via milk duct at 3 h and 15 h, 27 h post-infection
From the text: In this study, the therapeutic effects of Z-d14CFR on MDR bacterial infection in vivo was verified by a murine mastitis model. E. coli CAU201919 was used to establish the mastitis model because it is highly pathogenic compared with other bacteria and is resistant to various antibiotics, such as ampicillin, amoxicillin and cefazolin. In brief, 45 Crl:CD1 female mice at 17–18 days of gestation were purchased from Beijing Vital River Laboratory Animal Technology Co., Ltd. (Beijing, China) and kept in the Laboratory Animal Center of China Agricultural University (Beijing, China). At 72 h post-partum, the mice were randomly divided into 5 groups (n = 9 per group) and the offspring were removed 3 h before of administration. The mice were anesthetized by Zoletil 50 (55 mg/kg body weight, WK001, Virbac, France) and held under the stereoscope in a supine position. Mice in the saline group and Z-d14CFR group were intraductal inoculated with 50 μL normal saline or 50 μL Z-d14CFR (25 μg each teat) alone to the milk duct. Mice in other groups were inoculated with 25 μL (1 × 10^5 CFU) E. coli CAU201919 suspension to the milk duct, and after 3 h of E. coli challenged, mice were treated with 25 μL saline, Z-d14CFR (25 μg) or gentamicin (10 μg), respectively, via milk duct injection. Then the mice were given the same treatment after 15 h of E. coli challenged. After 27 h of E. coli challenged, all mice were euthanized. The mammary gland tissues were collected to carry out bacterial count, histopathological examination and inflammatory factors examination.

[12] = Retention time of peptide in HPLC (hydrophobicity); assay type: physicochemical; conditions: used as measure of hydrophobicity (order Z-d14CR > Z-d14CF > Z-d13 > Z-d14CFR > Z-d14C); column and gradient not given
[13] = Staphylococcus aureus, 18 h, read-out: MIC
[14] = Staphylococcus aureus, read-out: MBC
[15] = Streptococcus suis CVCC3307, read-out: MBC
[16] = Streptococcus suis, CVCC3307, 18 h, read-out: MIC
[17] = Proteus vulgaris CVCC1971, read-out: MBC
[18] = Proteus vulgaris, CVCC1971, 18 h, read-out: MIC
[19] = Klebsiella pneumoniae CAU202084 (MDR isolate), read-out: MBC
[20] = Klebsiella pneumoniae, CAU202084, 18 h, read-out: MIC

Molecule	MIC (MRSA ATCC33591; [13])	MBC (MRSA ATCC33591; [14])	MBC [1, 15]	MIC [1, 16]	MIC [2]	MBC [2]	MIC [3]	MBC [3]	MBC [4, 17]	MIC [4, 18]	MBC [5, 19]	MIC [5, 20]	MBC [6]	MIC [6]	MBC [7]	MIC [7]	MBC [8]	MIC [8]	MBC [9]	MIC [9]	also measured
CC1(C)S[C@@H]2[C@H](NC(=O)[C@H](N)c3ccccc3)C(=O)N2[C@H]1C(=O)O [Ampicillin, reference compound]	> 1000 µg/mL	> 1000 µg/mL	2 µg/mL (≈ 5.72 µM)	1 µg/mL (≈ 2.86 µM)	> 1000 µg/mL	> 1000 µg/mL	4 µg/mL (≈ 11.4 µM)	8 µg/mL (≈ 22.9 µM)	> 1000 µg/mL	> 1000 µg/mL	> 1000 µg/mL	> 1000 µg/mL	16 µg/mL (≈ 45.8 µM)	4 µg/mL (≈ 11.4 µM)	32 µg/mL (≈ 91.6 µM)	8 µg/mL (≈ 22.9 µM)	> 1000 µg/mL	> 1000 µg/mL	> 1000 µg/mL	> 1000 µg/mL	MBC [10]: 4 µg/mL (≈ 11.4 µM); MIC [10]: 2 µg/mL (≈ 5.72 µM); MBC [11]: > 1000 µg/mL; MIC [11]: > 1000 µg/mL
CNC(C)C1CCC(N)C(OC2C(N)CC(N)C(OC3OCC(C)(O)C(NC)C3O)C2O)O1 (stereo not drawn) [Gentamicin, reference compound]	4 µg/mL (≈ 8.38 µM)	16 µg/mL (≈ 33.5 µM)	8 µg/mL (≈ 16.8 µM)	4 µg/mL (≈ 8.38 µM)	4 µg/mL (≈ 8.38 µM)	32 µg/mL (≈ 67 µM)	2 µg/mL (≈ 4.19 µM)	2 µg/mL (≈ 4.19 µM)	4 µg/mL (≈ 8.38 µM)	1 µg/mL (≈ 2.09 µM)	4 µg/mL (≈ 8.38 µM)	1 µg/mL (≈ 2.09 µM)	4 µg/mL (≈ 8.38 µM)	4 µg/mL (≈ 8.38 µM)	4 µg/mL (≈ 8.38 µM)	2 µg/mL (≈ 4.19 µM)	40 µg/mL (≈ 83.8 µM)	40 µg/mL (≈ 83.8 µM)	4 µg/mL (≈ 8.38 µM)	4 µg/mL (≈ 8.38 µM)	time to kill bacteria in the logarithmic phase (S. aureus ATCC29213): ≤ 8 h; time to kill bacteria in the plateau (S. aureus ATCC29213): ≤ 12 h; time to kill bacteria in the logarithmic phase (E. coli ATCC25922): ≤ 8 h; time to kill bacteria in the plateau (E. coli ATCC25922): ≤ 12 h; bacterial burden in the mammary gland (E. coli CAU201919; Crl:CD1 mice, 1 × 10^5 CFU E. coli CAU201919 intraductal, infected only about 3.71 × 10^9, p < 0.001): 3.13 × 10^8 CFU/g tissue; histopathologic damage of the mammary gland (acinar wall thickening, neutrophils infiltration) (E. coli CAU201919): obviously ameliorated; increase in IL-1β mRNA expression in the mammary gland (E. coli CAU201919; p < 0.001): attenuated; increase in TNF-α mRNA expression in the mammary gland (E. coli CAU201919; p < 0.001): attenuated; MBC [10]: 4 µg/mL (≈ 8.38 µM); MIC [10]: 4 µg/mL (≈ 8.38 µM); MBC [11]: 80 µg/mL (≈ 168 µM); MIC [11]: 80 µg/mL (≈ 168 µM)
CC(C)[C@@H]1NC(=O)[C@@H]2CSSC[C@H](NC(=O)[C@H](Cc3ccc(O)cc3)NC(=O)[C@@H](NC(=O)CNC(=O)[C@@H](N)CCCNC(=N)N)CSSC[C@@H](C(=O)N[C@@H](CCCNC(=N)N)C(N)=O)NC1=O)C(=O)N[C@@H](CC(N)=O)C(=O)N[C@@H](CO)C(=O)N[C@@H](CCCCN)C(=O)N[C@@H](CO)C(=O)N[C@@H](Cc1ccccc1)C(=O)N2 [Z-d14CF] (H-RGCYCNSKSFCVCR-NH2; disulfide 3-13, 5-11; N-terminus assumed)																					MIC (MRSA ATCC33591; MRSA (methicillin-resistant S. aureus) ATCC33591, 1 × 10^6 CFU/mL, 18 h at 37 °C, NA = no antimicrobial activity at 1 mg/mL): NA (NA) (No antimicrobial activity at 1 mg/mL); MBC (MRSA ATCC33591): NA (NA) (No antimicrobial activity at 1 mg/mL); RT, retention time of peptide in HPLC [12]: 9.538 min; MIC ([1]; Streptococcus suis CVCC3307, 1 × 10^6 CFU/mL, 18 h at 37 °C, NA = no antimicrobial activity at 1 mg/mL): NA (NA) (No antimicrobial activity at 1 mg/mL); MBC ([1]; Streptococcus suis CVCC3307): NA (NA) (No antimicrobial activity at 1 mg/mL); MIC ([4]; Proteus vulgaris CVCC1971, 1 × 10^6 CFU/mL, 18 h at 37 °C, NA = no antimicrobial activity at 1 mg/mL): NA (NA) (No antimicrobial activity at 1 mg/mL); MBC ([4]; Proteus vulgaris CVCC1971): NA (NA) (No antimicrobial activity at 1 mg/mL); MIC ([5]; Klebsiella pneumoniae CAU202084 (MDR isolate), 1 × 10^6 CFU/mL, 18 h at 37 °C, NA = no antimicrobial activity at 1 mg/mL): NA (NA) (No antimicrobial activity at 1 mg/mL); MBC ([5]; Klebsiella pneumoniae CAU202084 (MDR isolate)): NA (NA) (No antimicrobial activity at 1 mg/mL)
polymyxin B																					time to kill bacteria in the logarithmic phase (S. aureus ATCC29213): ≤ 4 h; time to kill bacteria in the plateau (S. aureus ATCC29213): ≤ 12 h; time to kill bacteria in the logarithmic phase (E. coli ATCC25922): ≤ 4 h; time to kill bacteria in the plateau (E. coli ATCC25922): ≤ 12 h
